The text below walks through data of US9340590B2 (priority 2011, dated 2016).

What all share (assay): cell-based
Assay [1] addresses hNav1.7 (Homo sapiens, UniProt Q15858). The class given is cell-based. The settings on record: IonWorks Quattro, read-out: IWQ Use Nav1.7.
The target in assay [2] is hNav1.5 (Homo sapiens, UniProt Q14524). The settings on record: IonWorks Quattro, read-out: IWQ Use Nav1.5. In general terms: Patch clamp records ionic current or voltage across a cell membrane.
The target of assay [3] is hNav1.3 (Homo sapiens, UniProt Q9NY46). The following applies: IonWorks Quattro, read-out: IWQ Use Nav1.3.
Sequence of hNav1.3 (Q9NY46 whole entry, looked up): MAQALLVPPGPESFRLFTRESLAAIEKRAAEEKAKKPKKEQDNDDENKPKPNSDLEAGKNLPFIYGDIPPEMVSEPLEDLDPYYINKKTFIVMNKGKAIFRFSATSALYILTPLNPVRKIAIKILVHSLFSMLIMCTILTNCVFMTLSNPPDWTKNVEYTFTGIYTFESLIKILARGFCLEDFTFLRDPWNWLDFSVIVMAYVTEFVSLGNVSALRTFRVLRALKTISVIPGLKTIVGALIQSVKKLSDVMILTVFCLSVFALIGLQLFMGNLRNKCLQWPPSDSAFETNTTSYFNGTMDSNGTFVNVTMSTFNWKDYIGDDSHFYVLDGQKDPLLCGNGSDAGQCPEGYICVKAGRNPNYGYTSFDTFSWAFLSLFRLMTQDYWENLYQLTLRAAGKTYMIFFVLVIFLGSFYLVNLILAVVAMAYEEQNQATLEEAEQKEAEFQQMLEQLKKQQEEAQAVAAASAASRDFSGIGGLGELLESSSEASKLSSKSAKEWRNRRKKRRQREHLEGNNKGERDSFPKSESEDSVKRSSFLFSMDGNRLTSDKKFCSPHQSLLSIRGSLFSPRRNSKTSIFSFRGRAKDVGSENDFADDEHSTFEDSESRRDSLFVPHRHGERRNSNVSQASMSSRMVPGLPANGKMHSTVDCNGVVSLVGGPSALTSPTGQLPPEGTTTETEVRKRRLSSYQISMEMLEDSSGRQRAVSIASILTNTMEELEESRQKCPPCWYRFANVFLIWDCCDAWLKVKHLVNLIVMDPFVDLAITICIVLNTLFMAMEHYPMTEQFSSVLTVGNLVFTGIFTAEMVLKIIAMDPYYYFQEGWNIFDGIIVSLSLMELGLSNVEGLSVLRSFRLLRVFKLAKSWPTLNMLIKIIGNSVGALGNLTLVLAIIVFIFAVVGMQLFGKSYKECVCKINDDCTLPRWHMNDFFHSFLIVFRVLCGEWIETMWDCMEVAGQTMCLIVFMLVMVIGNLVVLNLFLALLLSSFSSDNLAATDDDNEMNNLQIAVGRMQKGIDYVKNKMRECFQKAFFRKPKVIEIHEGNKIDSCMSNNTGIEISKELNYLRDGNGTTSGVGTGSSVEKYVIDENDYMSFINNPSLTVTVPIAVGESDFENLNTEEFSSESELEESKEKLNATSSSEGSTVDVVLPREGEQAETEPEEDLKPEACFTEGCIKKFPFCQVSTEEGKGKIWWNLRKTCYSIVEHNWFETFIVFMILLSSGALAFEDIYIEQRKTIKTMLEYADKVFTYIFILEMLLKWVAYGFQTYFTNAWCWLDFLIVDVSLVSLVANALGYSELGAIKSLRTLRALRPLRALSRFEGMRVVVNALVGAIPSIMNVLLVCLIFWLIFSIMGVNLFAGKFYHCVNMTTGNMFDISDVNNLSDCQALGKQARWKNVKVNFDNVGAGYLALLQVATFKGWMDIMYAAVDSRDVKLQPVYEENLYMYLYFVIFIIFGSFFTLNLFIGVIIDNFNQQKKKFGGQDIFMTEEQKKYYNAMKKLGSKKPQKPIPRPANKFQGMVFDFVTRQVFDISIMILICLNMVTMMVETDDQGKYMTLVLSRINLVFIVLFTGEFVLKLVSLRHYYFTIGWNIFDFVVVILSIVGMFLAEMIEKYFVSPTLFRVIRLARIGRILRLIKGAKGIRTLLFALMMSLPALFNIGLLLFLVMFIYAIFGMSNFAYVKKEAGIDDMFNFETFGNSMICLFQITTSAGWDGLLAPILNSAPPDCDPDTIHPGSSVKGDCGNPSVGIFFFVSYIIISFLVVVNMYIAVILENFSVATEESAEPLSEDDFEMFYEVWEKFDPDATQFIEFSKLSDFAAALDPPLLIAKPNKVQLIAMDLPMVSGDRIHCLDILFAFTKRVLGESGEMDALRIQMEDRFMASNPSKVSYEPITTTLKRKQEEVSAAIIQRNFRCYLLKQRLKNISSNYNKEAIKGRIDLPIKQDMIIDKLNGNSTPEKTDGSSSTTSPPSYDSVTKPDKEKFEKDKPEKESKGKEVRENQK

Where two headings read alike, the source gives them in different places. Positions of bridges follow the written chain, without caps; N, C: chain ends. Non-standard residues stand in square brackets, D forms with d. Residues, ends and D or L forms follow the SMILES beside them. *: point of attachment. Phe(4-guanidino) = N=C(N)Nc1ccc(C[C@H](N)C(=O)O)cc1; 2Pal = N[C@@H](Cc1ccccn1)C(=O)O; Pent4ynoyl = C#CCCC(=O)*; Abu = CC[C@H](N)C(=O)O

Sequence of hNav1.5 (Q14524 whole entry, looked up): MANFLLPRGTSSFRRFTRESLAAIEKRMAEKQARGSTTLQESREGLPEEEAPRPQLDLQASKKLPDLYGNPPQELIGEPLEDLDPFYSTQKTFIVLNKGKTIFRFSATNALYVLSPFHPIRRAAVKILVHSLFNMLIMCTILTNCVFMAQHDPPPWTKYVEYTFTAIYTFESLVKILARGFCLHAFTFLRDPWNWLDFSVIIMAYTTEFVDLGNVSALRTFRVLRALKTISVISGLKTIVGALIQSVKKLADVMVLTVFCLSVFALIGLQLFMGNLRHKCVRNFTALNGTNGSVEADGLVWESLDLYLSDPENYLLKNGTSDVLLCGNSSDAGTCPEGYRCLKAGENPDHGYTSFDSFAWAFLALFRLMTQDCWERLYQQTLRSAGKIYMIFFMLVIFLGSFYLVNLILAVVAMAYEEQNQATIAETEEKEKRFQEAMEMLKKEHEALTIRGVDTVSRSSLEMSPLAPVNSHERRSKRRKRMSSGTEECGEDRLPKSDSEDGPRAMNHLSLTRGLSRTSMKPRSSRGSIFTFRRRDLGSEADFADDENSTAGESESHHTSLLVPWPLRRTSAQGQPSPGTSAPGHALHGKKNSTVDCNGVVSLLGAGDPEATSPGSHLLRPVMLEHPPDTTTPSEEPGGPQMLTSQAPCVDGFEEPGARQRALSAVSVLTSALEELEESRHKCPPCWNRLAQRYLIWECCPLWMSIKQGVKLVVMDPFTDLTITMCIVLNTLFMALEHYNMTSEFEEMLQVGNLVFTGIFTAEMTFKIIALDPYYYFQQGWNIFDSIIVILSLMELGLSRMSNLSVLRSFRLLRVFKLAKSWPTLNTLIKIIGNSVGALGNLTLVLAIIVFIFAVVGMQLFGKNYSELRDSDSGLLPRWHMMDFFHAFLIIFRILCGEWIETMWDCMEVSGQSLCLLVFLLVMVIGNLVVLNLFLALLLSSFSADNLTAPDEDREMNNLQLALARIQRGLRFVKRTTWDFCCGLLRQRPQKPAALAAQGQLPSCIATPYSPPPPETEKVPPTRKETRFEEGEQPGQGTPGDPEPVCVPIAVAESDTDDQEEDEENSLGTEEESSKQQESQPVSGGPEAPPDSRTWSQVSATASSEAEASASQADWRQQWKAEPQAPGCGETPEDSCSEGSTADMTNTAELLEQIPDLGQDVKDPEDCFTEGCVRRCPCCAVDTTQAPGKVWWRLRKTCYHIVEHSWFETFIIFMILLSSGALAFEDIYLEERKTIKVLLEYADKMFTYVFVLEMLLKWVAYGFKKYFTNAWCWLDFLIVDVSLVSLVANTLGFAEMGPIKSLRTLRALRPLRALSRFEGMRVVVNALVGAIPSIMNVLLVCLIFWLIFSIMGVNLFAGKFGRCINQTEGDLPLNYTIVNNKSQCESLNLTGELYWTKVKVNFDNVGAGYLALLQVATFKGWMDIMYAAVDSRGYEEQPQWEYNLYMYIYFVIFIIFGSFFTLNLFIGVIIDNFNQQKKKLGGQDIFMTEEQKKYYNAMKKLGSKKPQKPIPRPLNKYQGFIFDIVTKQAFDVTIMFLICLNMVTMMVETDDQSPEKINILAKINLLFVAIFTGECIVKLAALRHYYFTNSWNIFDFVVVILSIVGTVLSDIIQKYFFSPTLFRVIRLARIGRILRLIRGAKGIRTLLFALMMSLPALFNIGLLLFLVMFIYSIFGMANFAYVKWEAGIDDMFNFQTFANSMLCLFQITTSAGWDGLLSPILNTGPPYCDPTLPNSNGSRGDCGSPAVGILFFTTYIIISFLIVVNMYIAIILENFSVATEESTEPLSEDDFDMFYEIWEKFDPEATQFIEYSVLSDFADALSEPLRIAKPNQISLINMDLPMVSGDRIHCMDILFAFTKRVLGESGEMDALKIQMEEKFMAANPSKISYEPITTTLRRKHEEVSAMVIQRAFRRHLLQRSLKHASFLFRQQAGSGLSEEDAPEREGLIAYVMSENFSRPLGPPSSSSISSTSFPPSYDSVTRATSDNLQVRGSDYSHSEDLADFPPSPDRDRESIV

Take `CC[C@H](C)[C@@H]1NC(=O)[C@@H]2CSSC[C@@H]3NC(=O)[C@H](C(C)C)NC(=O)[C@H](CC(C)C)NC(=O)[C@H](CC(N)=O)NC(=O)[C@@H]4CCCN4C(=O)[C@H](CCCNC(=N)N)NC(=O)[C@H](CSSC[C@H](NC(=O)[C@@H](N)CC(=O)O)C(=O)N[C@@H](CC(C)C)C(=O)NCC(=O)N[C@@H](C)C(=O)N[C@@H](CCSC)C(=O)N[C@@H](CCCNC(=N)N)C(=O)N[C@@H](CCCCN)C(=O)N2)NC(=O)[C@H](CSSC[C@@H](C(=O)N[C@@H](CCCCN)C(=O)N[C@@H](Cc2ccc(O)cc2)C(=O)N[C@H](C(=O)N[C@@H](Cc2ccccc2)C(N)=O)C(C)C)NC(=O)[C@H](Cc2c[nH]c4ccccc24)NC(=O)[C@H](Cc2ccc(NC(=N)N)cc2)NC(=O)[C@H](Cc2c[nH]cn2)NC(=O)[C@H]([C@@H](C)O)NC(=O)[C@H](CCCNC(=N)N)NC(=O)[C@H](CO)NC3=O)NC(=O)[C@H](CCCCN)NC(=O)[C@H](CC(=O)O)NC(=O)[C@H](CC(N)=O)NC(=O)[C@H](CC(=O)O)NC(=O)[C@@H]2CCCN2C1=O` [compound 761] (H-DCLGAMRKCIPDNDKCCRPNLVCSRTH[Phe(4-guanidino)]WCKYVF-NH2; disulfide 2-17, 9-23, 16-30): the IC50 in assay [1] (use-dependent block, hNav1.7) was found to be 0.16 µM; in assay [2] (use-dependent block, hNav1.5), 26.9 µM; in assay [3] (use-dependent block, hNav1.3), 0.63 µM.

Regarding `CC[C@H](C)[C@@H]1NC(=O)[C@@H]2CSSC[C@@H]3NC(=O)[C@H](C(C)C)NC(=O)[C@H](CC(C)C)NC(=O)[C@H](CC(N)=O)NC(=O)[C@@H]4CCCN4C(=O)[C@H](CCCNC(=N)N)NC(=O)[C@H](CSSC[C@H](NC(=O)[C@@H](N)CC(=O)O)C(=O)N[C@@H](CC(C)C)C(=O)NCC(=O)N[C@@H](C)C(=O)N[C@@H](Cc4ccccc4)C(=O)N[C@@H](CCCNC(=N)N)C(=O)N[C@@H](CCCCN)C(=O)N2)NC(=O)[C@H](CSSC[C@@H](C(=O)N[C@@H](CCCCN)C(=O)N[C@@H](Cc2ccc(O)cc2)C(=O)N[C@H](C(=O)N[C@@H](Cc2ccccc2)C(N)=O)C(C)C)NC(=O)[C@H](Cc2c[nH]c4ccccc24)NC(=O)[C@H](CCCCN)NC(=O)[C@H](Cc2c[nH]cn2)NC(=O)[C@H]([C@@H](C)O)NC(=O)[C@H](C)NC(=O)[C@H](CO)NC3=O)NC(=O)[C@H](CCCCN)NC(=O)[C@H](CC(=O)O)NC(=O)[C@H](CC(N)=O)NC(=O)[C@H](CC(=O)O)NC(=O)[C@@H]2CCCN2C1=O` [compound 732] (H-DCLGAFRKCIPDNDKCCRPNLVCSATHKWCKYVF-NH2; disulfide 2-17, 9-23, 16-30), the IC50 in assay [1] (use-dependent block, hNav1.7) was 0.29 µM; in assay [2] (use-dependent block, hNav1.5) it was greater than 50 µM; in assay [3] (use-dependent block, hNav1.3), 0.6 µM.

Regarding `CC[C@H](C)[C@@H]1NC(=O)[C@@H]2CSSC[C@@H]3NC(=O)[C@H](C(C)C)NC(=O)[C@H](CC(C)C)NC(=O)[C@H](CC(N)=O)NC(=O)[C@@H]4CCCN4C(=O)[C@H](CCCNC(=N)N)NC(=O)[C@H](CSSC[C@H](NC(=O)[C@@H](N)CC(=O)O)C(=O)N[C@@H](CC(C)C)C(=O)NCC(=O)N[C@@H](Cc4ccccc4)C(=O)N[C@@H](CCSC)C(=O)N[C@@H](CCCNC(=N)N)C(=O)N[C@@H](CCCCN)C(=O)N2)NC(=O)[C@H](CSSC[C@@H](C(=O)N[C@@H](CCCCN)C(=O)N[C@@H](Cc2ccccn2)C(=O)N[C@H](C(=O)N[C@@H](Cc2ccccc2)C(N)=O)C(C)C)NC(=O)[C@H](Cc2c[nH]c4ccccc24)NC(=O)[C@H](CCCCN)NC(=O)[C@H](Cc2c[nH]cn2)NC(=O)[C@H]([C@@H](C)O)NC(=O)[C@H](CCCNC(=N)N)NC(=O)[C@H](CO)NC3=O)NC(=O)[C@H](CCCCN)NC(=O)[C@H](CC(=O)O)NC(=O)[C@H](CC(N)=O)NC(=O)[C@H](CC(=O)O)NC(=O)[C@@H]2CCCN2C1=O` [compound 384] (H-DCLGFMRKCIPDNDKCCRPNLVCSRTHKWCK[2Pal]VF-NH2; disulfide 2-17, 9-23, 16-30), the IC50 in assay [1] (Table 25, use, […]) was determined as 0.81 µM; in assay [2] (Table 25, use, […]) it was 7.65 µM; in assay [3] (Table 25, use, […]), 0.66 µM.

Consider `CC[C@H](C)[C@@H]1NC(=O)[C@@H]2CSSC[C@@H]3NC(=O)[C@H](C(C)C)NC(=O)[C@H](CC(C)C)NC(=O)[C@H](CC(N)=O)NC(=O)[C@@H]4CCCN4C(=O)[C@H](CCCNC(=N)N)NC(=O)[C@H](CSSC[C@H](NC(=O)[C@H](CC(=O)O)NC(=O)[C@H](CO)NC(=O)CN)C(=O)N[C@@H](CC(C)C)C(=O)NCC(=O)N[C@@H](C)C(=O)N[C@@H](CC(C)C)C(=O)N[C@@H](CCCNC(=N)N)C(=O)N[C@@H](CCCCN)C(=O)N2)NC(=O)[C@H](CSSC[C@@H](C(=O)N[C@@H](CCCCN)C(=O)N[C@@H](Cc2ccc(O)cc2)C(=O)N[C@H](C(=O)N[C@@H](Cc2ccccc2)C(N)=O)C(C)C)NC(=O)[C@H](Cc2c[nH]c4ccccc24)NC(=O)[C@H](CCCNC(=N)N)NC(=O)[C@H](Cc2c[nH]cn2)NC(=O)[C@H]([C@@H](C)O)NC(=O)[C@H](CCCNC(=N)N)NC(=O)[C@H](CO)NC3=O)NC(=O)[C@H](CCCCN)NC(=O)[C@H](CC(=O)O)NC(=O)[C@H](CC(N)=O)NC(=O)[C@H](CC(=O)O)NC(=O)[C@@H]2CCCN2C1=O` [compound 812] (H-GSDCLGALRKCIPDNDKCCRPNLVCSRTHRWCKYVF-NH2; disulfide 4-19, 11-25, 18-32), for which the IC50 was 0.2 µM in assay [1] (use-dependent block, hNav1.7); greater than 5 µM in assay [2] (use-dependent block, hNav1.5); 0.2 µM in assay [3] (use-dependent block, hNav1.3).

Turning to `CC[C@H](C)[C@@H]1NC(=O)[C@@H]2CSSC[C@@H]3NC(=O)[C@H](C(C)C)NC(=O)[C@H](CC(C)C)NC(=O)[C@H](CC(N)=O)NC(=O)[C@@H]4CCCN4C(=O)[C@H](CCCNC(=N)N)NC(=O)[C@H](CSSC[C@H](NC(=O)[C@@H](N)CC(=O)O)C(=O)N[C@@H](CC(C)C)C(=O)NCC(=O)N[C@@H](C)C(=O)N[C@@H](CC(C)C)C(=O)N[C@@H](CCCNC(=N)N)C(=O)N[C@@H](CCCCN)C(=O)N2)NC(=O)[C@H](CSSC[C@@H](C(=O)N[C@@H](CCCCN)C(=O)N[C@@H](Cc2ccc(O)cc2)C(=O)N[C@H](C(=O)N[C@@H](Cc2ccccc2)C(=O)O)C(C)C)NC(=O)[C@H](Cc2c[nH]c4ccccc24)NC(=O)[C@H](CCCNC(=N)N)NC(=O)[C@H](Cc2c[nH]cn2)NC(=O)[C@H]([C@@H](C)O)NC(=O)[C@H](CCCNC(=N)N)NC(=O)[C@H](CO)NC3=O)NC(=O)[C@H](CCCCN)NC(=O)[C@H](CC(=O)O)NC(=O)[C@H](C)NC(=O)[C@H](CC(=O)O)NC(=O)[C@@H]2CCCN2C1=O` [compound 860] (H-DCLGALRKCIPDADKCCRPNLVCSRTHRWCKYVF-OH; disulfide 2-17, 9-23, 16-30), the IC50 is greater than 5 µM in assay [1] (use-dependent block, hNav1.7); greater than 5 µM in assay [2] (use-dependent block, hNav1.5); 4.5 µM in assay [3] (use-dependent block, hNav1.3).

Take `CC[C@H](C)[C@@H]1NC(=O)[C@@H]2CSSC[C@@H]3NC(=O)[C@H](C(C)C)NC(=O)[C@H](CC(C)C)NC(=O)[C@H](Cc4ccccc4)NC(=O)[C@@H]4CCCN4C(=O)[C@H](CCCNC(=N)N)NC(=O)[C@H](CSSC[C@H](NC(=O)[C@@H](N)CC(=O)O)C(=O)N[C@@H](CC(C)C)C(=O)NCC(=O)N[C@@H](Cc4ccccc4)C(=O)N[C@@H](CCSC)C(=O)N[C@@H](CCCNC(=N)N)C(=O)N[C@@H](CCCCN)C(=O)N2)NC(=O)[C@H](CSSC[C@@H](C(=O)N[C@@H](CCCCN)C(=O)N[C@@H](Cc2ccc(O)cc2)C(=O)N[C@H](C(=O)N[C@@H](Cc2ccccc2)C(N)=O)C(C)C)NC(=O)[C@H](Cc2c[nH]c4ccccc24)NC(=O)[C@H](CCCCN)NC(=O)[C@H](Cc2c[nH]cn2)NC(=O)[C@H]([C@@H](C)O)NC(=O)[C@H](CCCNC(=N)N)NC(=O)[C@H](CO)NC3=O)NC(=O)[C@H](CCCCN)NC(=O)[C@H](CC(=O)O)NC(=O)[C@H](CC(N)=O)NC(=O)[C@H](CC(=O)O)NC(=O)[C@@H]2CCCN2C1=O` [compound 199] (H-DCLGFMRKCIPDNDKCCRPFLVCSRTHKWCKYVF-NH2; disulfide 2-17, 9-23, 16-30): the IC50 in assay [1] (Use) worked out at 0.154 µM; in assay [2] (Use), 10.8 µM; in assay [3] (Use) it was 0.067 µM.

On to `C#CCCC(=O)N[C@@H](CC(=O)O)C(=O)N[C@H]1CSSC[C@@H]2NC(=O)[C@@H]3CSSC[C@@H](C(=O)N[C@@H](CCCCN)C(=O)N[C@@H](Cc4ccc(O)cc4)C(=O)N[C@H](C(=O)N[C@@H](Cc4ccccc4)C(N)=O)C(C)C)NC(=O)[C@H](Cc4c[nH]c5ccccc45)NC(=O)[C@H](CCCNC(=N)N)NC(=O)[C@H](Cc4c[nH]cn4)NC(=O)[C@H]([C@@H](C)O)NC(=O)[C@H](CCCNC(=N)N)NC(=O)[C@H](CO)NC(=O)[C@H](CSSC[C@H](NC(=O)[C@H](CCCCN)NC(=O)[C@H](CCCNC(=N)N)NC(=O)[C@H](Cc4ccccc4)NC(=O)[C@H](C)NC(=O)CNC(=O)[C@H](CC(C)C)NC1=O)C(=O)N[C@@H]([C@@H](C)CC)C(=O)N1CCC[C@H]1C(=O)N[C@@H](CC(=O)O)C(=O)N[C@@H](CC)C(=O)N[C@@H](CC(=O)O)C(=O)N[C@@H](CCCCN)C(=O)N3)NC(=O)[C@H](C(C)C)NC(=O)[C@H](CC(C)C)NC(=O)[C@H](CC(N)=O)NC(=O)[C@@H]1CCCN1C(=O)[C@H](CCCNC(=N)N)NC2=O` [compound 756] (Pent4ynoyl-DCLGAFRKCIPD[Abu]DKCCRPNLVCSRTHRWCKYVF-NH2; disulfide 2-17, 9-23, 16-30), for which the IC50 in assay [1] (use-dependent block, hNav1.7) turned out to be 0.18 µM; in assay [2] (use-dependent block, hNav1.5) it was 44.4 µM; in assay [3] (use-dependent block, hNav1.3), 0.26 µM.
